Assay results: ChEMBL document CHEMBL5226349, “Novel Antimicrobial 8-Hydroxyquinoline-Based Agents: Current Development, Structure-Activity Relationships, and Perspectives” (J Med Chem, 2021)
Converted amounts (≈) assume the structure as drawn.

How the values were obtained:
[1] = tested on: Aspergillus niger; test: Antifungal activity against Aspergillus niger; format: functional
[2] = tested on: Enterococcus faecalis; test: Antibacterial activity against Enterococcus faecalis; format: functional
[3] = tested on: Aspergillus; test: Antifungal activity against Aspergillus; format: functional
[4] = Inhibition of Mycobacterium tuberculosis Zmp1
[5] = Inhibition of Aeromonas proteolytica aminopeptidase; set-up: species or system Vibrio proteolyticus
[6] = tested on: Mycobacterium tuberculosis; test: Antibacterial activity against Mycobacterium tuberculosis; format: functional
[7] = tested on: Candida albicans; test: Antifungal activity against Candida albicans; format: functional
[8] = tested on: Candida; test: Antibiofilm activity against Candida; format: functional
[9] = Inhibition of Mycobacterium tuberculosis MetAP1c
[10] = Inhibition of Mycobacterium tuberculosis MetAP1a
[11] = tested on: Mycobacterium tuberculosis; test: Antibacterial activity against aged non-growing Mycobacterium tuberculosis; format: functional
[12] = target: Methionine aminopeptidase 2 (Homo sapiens, UniProt P50579); test: Inhibition of human MetAP2
Sequence of Methionine aminopeptidase 2 (P50579 whole entry): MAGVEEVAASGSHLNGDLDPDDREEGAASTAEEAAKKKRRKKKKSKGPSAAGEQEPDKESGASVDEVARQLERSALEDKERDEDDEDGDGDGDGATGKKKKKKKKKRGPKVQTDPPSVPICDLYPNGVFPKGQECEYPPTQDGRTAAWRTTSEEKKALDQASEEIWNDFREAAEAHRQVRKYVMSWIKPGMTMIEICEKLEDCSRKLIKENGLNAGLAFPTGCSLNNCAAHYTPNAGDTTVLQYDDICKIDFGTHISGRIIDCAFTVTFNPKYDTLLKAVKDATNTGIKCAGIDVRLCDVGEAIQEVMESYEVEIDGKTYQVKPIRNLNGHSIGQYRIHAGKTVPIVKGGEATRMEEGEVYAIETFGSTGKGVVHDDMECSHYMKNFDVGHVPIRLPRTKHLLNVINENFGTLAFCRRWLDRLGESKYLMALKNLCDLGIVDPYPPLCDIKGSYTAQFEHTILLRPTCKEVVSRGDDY

[13] = target: Methionine aminopeptidase 1 (Homo sapiens, UniProt P53582); test: Inhibition of human MetAP1
[14] = tested on: Cryptococcus neoformans; test: Antifungal activity against Cryptococcus neoformans; format: functional
[15] = tested on: Chlamydia; test: Antibacterial activity against Chlamydia; format: functional
[16] = tested on: Nakaseomyces glabratus; test: Antifungal activity against Candida glabrata; format: functional
[17] = Inhibition of Mycobacterium tuberculosis FBA
[18] = tested on: Chlamydia trachomatis; test: Bactericidal activity against Chlamydia trachomatis; format: functional
[19] = tested on: Staphylococcus epidermidis; test: Antibiofilm activity against methicillin-resistant Staphylococcus epidermidis; format: functional
[20] = tested on: Enterococcus; test: Antibiofilm activity against vancomycin-resistant Enterococcus; format: functional
[21] = tested on: Staphylococcus aureus; test: Antibiofilm activity against methicillin-resistant Staphylococcus aureus; format: functional

Structure (SMILES): Brc1cccc(COc2cccc3cccnc23)c1
- MIC [1]: 9.94 µM (≈ 3.12 µg/mL)

Structure (SMILES): O=C(CSc1nnc(COc2cccc3cccnc23)n1-c1ccccc1)Nc1nc2cc(F)ccc2s1
- MIC [2]: 28.8 µM (≈ 15.6 µg/mL)

Structure (SMILES): COc1ccc(CN2CCN(c3nc(Nc4ccc(C#N)cc4)nc(Oc4cccc5cccnc45)n3)CC2)c(OC)c1OC
- MIC [3]: 9.8 µM (≈ 5.93 µg/mL)

Structure (SMILES): O=C(NCCc1ccccc1)c1ccc2cccc(O)c2n1
- IC50 [4]: > 10 µM

Structure (SMILES): Oc1cccc2cccnc12 [OXYQUINOLINE]
- Ki [5]: 0.58 µM

Structure (SMILES): CNc1ccc2cccc(O)c2n1
- MIC [6]: 6.4 µM (≈ 1.11 µg/mL)

Structure (SMILES): O=C(NCCCc1ccccc1)c1ccc2cccc(O)c2n1
- IC50 [4]: > 10 µM

Structure (SMILES): N#Cc1ccc(Nc2nc(Oc3cccc4cccnc34)nc(N3CCN(c4ccccn4)CC3)n2)cc1C(F)(F)F
- MIC [7]: 9.8 µM (≈ 5.58 µg/mL)
- MIC [6]: 439 µM (≈ 250 µg/mL)

Structure (SMILES): N#Cc1ccc(Nc2nc(Oc3cccc4cccnc34)nc(N3CCN(c4cccc(Cl)c4Cl)CC3)n2)cc1C(F)(F)F
- MIC [6]: 19.6 µM (≈ 12.5 µg/mL)
- MIC [3]: 9.8 µM (≈ 6.25 µg/mL)

Structure (SMILES): O=S(=O)(Nc1ccc(Cl)cc1)c1ccc(O)c2ncccc12
- MIC [8]: 3 µM (≈ 1 µg/mL)

Structure (SMILES): Cc1ccccc1OCC(O)COc1cccc2cccnc12 (stereo not drawn)
- MIC [6]: 23.3 µM (≈ 7.21 µg/mL)

Structure (SMILES): OC(COc1ccccc1)COc1cccc2cccnc12 (stereo not drawn)
- MIC [6]: 42.3 µM (≈ 12.5 µg/mL)

Structure (SMILES): C=CCONC(=O)c1ccc2cccc(O)c2n1
- IC50 [4]: 0.123 µM

Structure (SMILES): O=C(Nc1cccc(C(F)(F)F)c1)c1ccc2cccc(O)c2n1
- MIC [6]: 24 µM (≈ 7.97 µg/mL)

Structure (SMILES): CC(=O)Oc1c(Cl)cc(Cl)c2cccnc12
- IC50 [9]: 4.92 µM
- IC50 [10]: 4.87 µM

Structure (SMILES): Oc1c(Br)cc(Cl)c2cccnc12
- IC50 [9]: 4.92 µM
- MIC [11]: 2.51 µM (≈ 0.649 µg/mL)
- IC50 [12]: 112 µM
- IC50 [10]: 5.44 µM
- MIC [6]: 19.3 µM (≈ 5 µg/mL)
- IC50 [13]: 105 µM

Structure (SMILES): Cc1ccc(S(=O)(=O)OCCn2cc(COc3cccc4cccnc34)nn2)cc1
- MIC80 [14]: 2.36 µM (≈ 1 µg/mL)

Structure (SMILES): O=[N+]([O-])c1cc(CN2CCC(c3ccccc3)C2)c(O)c2ncccc12 (stereo not drawn)
- MBC [15]: 12.5 µM (≈ 4.37 µg/mL)

Structure (SMILES): O=S(=O)(O)c1ccc(O)c2ncccc12
- MIC [7]: 4.44 µM (≈ 1 µg/mL)
- MIC [16]: 4.44 µM (≈ 1 µg/mL)

Structure (SMILES): O=C(Nc1ccccc1Br)c1ccc2cccc(O)c2n1
- MIC [6]: 23 µM (≈ 7.89 µg/mL)

Structure (SMILES): O=C(NCCO[C@H]1O[C@H](CO)[C@@H](O)[C@H](O)[C@@H]1O)c1ccc(O)c2ncccc12
- MIC [7]: 5000 µM (≈ 1970 µg/mL)

Structure (SMILES): O=[N+]([O-])c1ccc(O)c2ncccc12 [NITROXOLINE]
- IC50 [5]: 29 µM

Structure (SMILES): O=C(NNC(c1ccc2cccnc2c1O)c1c(-c2ccccc2)[nH]c2ccccc12)c1ccncc1 (stereo not drawn)
- MIC [6]: 103 µM (≈ 50 µg/mL)

Structure (SMILES): O=C(O)c1ccc2cccc(O)c2n1
- IC50 [17]: 10 µM
- IC50 [4]: > 10 µM

Structure (SMILES): O=C(Nc1ccccc1[N+](=O)[O-])c1ccc2cccc(O)c2n1
- MIC [6]: 97 µM (≈ 30 µg/mL)

Structure (SMILES): O=[N+]([O-])c1cc(CN2CCN(c3ccc(F)cc3)CC2)c(O)c2ncccc12
- MBC [15]: 3.13 µM (≈ 1.2 µg/mL)

Structure (SMILES): O=C(O)c1ccc2ccc(/C=C/c3ccccc3Cl)nc2c1O
- MIC [6]: 120 µM (≈ 39.1 µg/mL)

Structure (SMILES): O=C(NCCO[C@H]1O[C@H](CO)[C@@H](O)[C@H](O)[C@@H]1O)c1ccc2cccnc2c1O
- MIC [7]: 10000 µM (≈ 3940 µg/mL)

Structure (SMILES): O=C(O)c1cn(C2CC2)c2cc(N3CCN(C(=O)c4ccc5cccc(O)c5n4)CC3)c(F)cc2c1=O
- MBC [18]: 5 µM (≈ 2.51 µg/mL)

Structure (SMILES): O=C(NCCO[C@@H]1O[C@H](CO)[C@@H](O)[C@H](O)[C@H]1O)c1ccc2cccnc2c1O
- MIC [7]: 10000 µM (≈ 3940 µg/mL)

Structure (SMILES): Oc1ccc(C(F)(F)F)c2cccnc12
- Ki [5]: 0.37 µM

Structure (SMILES): OC(COc1ccc(Cl)cc1)COc1cccc2cccnc12 (stereo not drawn)
- MIC [6]: 9.85 µM (≈ 3.25 µg/mL)

Structure (SMILES): Oc1c(Br)cc(Br)c2ccc(CNc3ccc(F)cc3)nc12
- MBEC [19]: 5.9 µM
- MBEC [20]: 1 µM
- MBEC [21]: 93.8 µM

Structure (SMILES): O=C(Nc1cccc(Cl)c1)c1ccc2cccc(O)c2n1
- MIC [6]: 50 µM (≈ 14.9 µg/mL)

Structure (SMILES): Oc1cccc2ccc(N3CCCCC3)nc12
- MIC [6]: > 20 µM

Structure (SMILES): Nc1ccc2cccc(O)c2n1
- MIC [6]: 4.6 µM (≈ 0.737 µg/mL)
